# Test results from paper PMC12010937, “Evaluation of FXR Activity in Pollutants Identified in Sewage Sludge and Subsequent in Vitro and in Vivo Characterization of Metabolic Effects of Triphenyl Phosphate” (Environmental Health Perspectives, 2025).
# Several values for one entry are separate records, joined by “and”; a condition that tells them apart may be missing. Identical values can stand only once.
# How the values were obtained:
# [1] = target: T1, human FXR-LBD (GST-FXR-LBD) (Homo sapiens, UniProt Q96RI1); experiment: HTRF coactivator recruitment assay, agonist mode; format: biochemical; settings: FXR agonists (Figure S3A), replicates
# T1 construct: the human FXR-LBD (residues 234–472) was expressed as a GST fusion protein GST-FXR-LBD; made in house; host or cells: E. coli BL21(DE3)
# T1 sequence (Q96RI1 234-472 isoform Q96RI1-2): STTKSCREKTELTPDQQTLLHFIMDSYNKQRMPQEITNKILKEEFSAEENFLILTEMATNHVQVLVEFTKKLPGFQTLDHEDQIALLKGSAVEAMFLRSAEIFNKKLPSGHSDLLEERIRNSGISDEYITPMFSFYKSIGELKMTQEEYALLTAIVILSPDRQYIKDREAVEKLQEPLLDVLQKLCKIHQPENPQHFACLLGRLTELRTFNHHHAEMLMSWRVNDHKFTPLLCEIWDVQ
# [2] = target: T2, human FXR-LBD (6His-FXR-LBD) (Homo sapiens, UniProt Q96RI1); experiment: FXR protein affinity pull-down assay; format: binding; settings: 100 nM OCA
# T2 construct: human FXR (residues 243–472) was expressed and purified as an amino-terminal 6His fusion protein; made in house; host or cells: E. coli BL21(DE3)
# T2 sequence (Q96RI1 243-472 isoform Q96RI1-2): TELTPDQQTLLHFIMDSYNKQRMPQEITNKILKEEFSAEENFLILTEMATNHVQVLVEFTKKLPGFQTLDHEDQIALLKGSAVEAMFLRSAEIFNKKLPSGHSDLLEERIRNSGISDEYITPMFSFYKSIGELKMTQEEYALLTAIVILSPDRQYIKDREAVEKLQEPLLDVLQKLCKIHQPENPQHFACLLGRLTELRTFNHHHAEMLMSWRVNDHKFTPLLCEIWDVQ
# From the text: The ligand binding domain (LBD) of human FXR (residues 243–472) was expressed and purified as an amino-terminal 6His fusion protein based on the prokaryotic expression vector pACYCDuet-1, and the pACYCDuet-1-6His-FXR-LBD plasmid was synthesized by the Beijing Genomics Institute (BGI). In detail, the gene encoding human FXR-LBD was first synthesized by BGI and then subcloned into the pACYCDuet-1 vector predigested with BamHI/NotI (SE0054/SE0594; SibEnzyme) according to the manufacturer’s protocol. In brief, the vector was predigested at 37°C for 15 min, subsequently mixed with the synthesized FXR-LBD cDNA and seamless assembly mix (BGI), and incubated at 52°C for 30 min. Then, the new plasmid construct pACYCDuet-1-6His-FXR-LBD was transformed into Escherichia coli Top10 Competent Cells (BGI) by heat shock transformation (the mixture was incubated on ice for 30 min, then incubated at 42°C for 90 s and transferred to ice for 3 min). Finally, the pACYCDuet-1-6His-FXR-LBD plasmid were extracted from the positive clone, confirmed by sequencing and provided by BGI. The pACYCDuet-1-6His-FXR-LBD plasmid was transformed into E. coli BL21(DE3) cells (Tiangen Biotech) by heat shock transformation (the mixture was incubated on ice for 30 min, then incubated at 42°C for 90 s, and then transferred to ice for 3 min). The transformed E. coli was grown in lysogeny broth (LB) medium at 37°C to OD600 about 0.8–1.0, and then protein expression was induced with 0.5 mM isopropyl β-d-1-thiogalactopyranoside (IPTG) at 25°C for 5 h. The cells were harvested by centrifugation at 4°C and 5,000×g for 10 min, and the harvested cells were subjected to ultrasonic disruption (5 s on, 7 s off, 150 cycles) using an ultrasonic homogenizer (Ningbo Scientz Biotechnology) and centrifugation at 4°C and 12,000×g for 1 h. […] Finally, the purity of the 6His-FXR-LBD protein was detected by sodium dodecyl sulfate-polyacrylamide gel electrophoresis (SDS-PAGE) with 4%–15% Bis-tris SDS-PAGE gel (Sangon Biotech), which was stained with Coomassie brilliant blue R250 Protein Stain Reagent (Coolaber). […]
# [3] = target: T1, human FXR-LBD (GST-FXR-LBD); experiment: HTRF coactivator recruitment assay, antagonist mode (in the presence of 50 μM CDCA); format: biochemical; settings: FXR antagonists (Figure S3B), replicates
# FXR = tested on: FXR; set-up: method as in PMID 12166927; settings: read-out: EC50 (FXR agonist); cited from earlier work
structure (smiles),measurement,setting,value
"CC[C@H]1[C@@H](O)[C@@H]2[C@H](CC[C@]3(C)[C@@H]([C@H](C)CCC(=O)O)CC[C@@H]23)[C@@]2(C)CC[C@@H](O)C[C@@H]12 [OCA, obeticholic acid]",Ratio of 665nm/615nm,[1]; 0.008 μM,[…]
same,Recovery of OCA pulled down by control protein,"[2]; boiled inactivated (denatured) FXR-LBD as negative control, n=3",4.69% and 4.09% and 4.45%
same,Recovery of OCA pulled down by the FXR-LBD protein,"[2]; purified 6His-FXR-LBD, n=3",91.28% and 89.1% and 85.93%
